Values of other authors, collected in patent publication US20080031898A1, “Compositions and methods to increase the effect of a neurotoxin treatment” (priority 2004, published 2008).

System: BRAF(V600E) mutant xenografts
Conditions: Solit et al, Nature 2006

For `O=C(NOC[C@H](O)CO)c1ccc(F)c(F)c1Nc1ccc(I)cc1F` [PD0325901], the “suppression of xenograft growth” value is listed as “completely suppresses the growth”.
